From US8148366B2, “Substituted pyrazolo[3,4-E][diazepin-6-5(H)ones and analogues thereof, their preparation and their use as antibacterial medicaments” (Novexel SA, priority 2008, dated 2012)
Converted amounts (≈) assume the structure as drawn.

Tested on: Pseudomonas aeruginosa (1771 Wild-type strain)
Assay: Activity in vitro, method of dilutions in liquid medium (M.I.C.)
Type: cell-based
Conditions: incubation 24 hours at 37° C., growth inhibition by transillumination; for MIC: read-out: MIC (μg/mL) 24 h (P, aerug, 1771)
Protocol: Activity in vitro, method of dilutions in liquid medium:
A series of tubes is prepared, into which the same quantity of sterile nutritive medium is distributed, increasing quantities of the product to be studied are distributed into each tube then each tube is seeded with a bacterial strain. After incubation for 24 hours in an oven at 37° C., growth inhibition is assessed by transillumination, which makes it possible to determine the minimum inhibitory concentrations (M.I.C.) expressed in μg/ml.
Tests are thus carried out with the products of Examples 1 to 19 in comparison with the products of Examples 11 of the Application WO 04/052891 and 18 of the Application WO 02/100860.

**Q.** How did the “MIC (μg/mL) 24 h (P, aerug, 1771)” value turn out when `NC[C@@H]1c2nn(C(=O)N3CCNCC3)cc2[C@H]2CN1C(=O)N2OS(=O)(=O)O` (relative stereo) [Ex2, trans 8-(aminomethyl)-2-(4-piperazine-1-carbonyl)-4,8-dihydro-5-(sulphooxy)-4,7-methano-7H-pyrazolo[3,4-e][1,3]diazepin-6(5H)-one] was run?
**A.** 0.5 µg/mL (≈ 1.25 µM)

**Q.** With `CN(C)CCNC(=O)n1cc2c(n1)[C@@H](CN)N1C[C@H]2N(OS(=O)(=O)O)C1=O` (relative stereo) [Ex3, trans 8-(aminomethyl)-4,8-dihydro-2-(2-dimethylaminoethylcarbamoyl)-5-(sulphooxy)-4,7-methano-7H-pyrazolo[3,4-e][1,3] diazepin-6(5H)-one] as the molecule, how does the MIC read?
**A.** 1 µg/mL (≈ 2.48 µM)

**Q.** Which MIC does the source give for `NC[C@@H]1c2nn(C(=O)N3CCCC3)cc2[C@H]2CN1C(=O)N2OS(=O)(=O)O` (relative stereo) [Ex4, trans 8-(aminomethyl)-4,8-dihydro-2-(pyrrolidine-1-carbonyl)-5-(sulphooxy)-4,7-methano-7H-pyrazolo[3,4-e][1,3]diazepin-6(5H)-one] here?
**A.** 8 µg/mL (≈ 20.7 µM)

**Q.** With `NCCCNC(=O)n1cc2c(n1)[C@@H](CN)N1C[C@H]2N(OS(=O)(=O)O)C1=O` (relative stereo) [Ex5, trans 8-(aminomethyl)-2-[(3-amino-propyl)carbamoyl]-4,8-dihydro-5-(sulphooxy)-4,7-methano-7H-pyrazolo[3,4-e][1,3] diazepin-6(5H)-one] as the molecule, how does the MIC read?
**A.** 0.5 µg/mL (≈ 1.28 µM)

**Q.** With `CC(N)CCNC(=O)n1cc2c(n1)[C@@H](CN)N1C[C@H]2N(OS(=O)(=O)O)C1=O` (relative stereo) [Ex6, trans 8-(aminomethyl)-2-[(3-amino-butyl)carbamoyl]-4,8-dihydro-5-(sulphooxy)-4,7-methano-7H-pyrazolo[3,4-e][1,3] diazepin-6(5H)-one] as the molecule, how does the MIC read?
**A.** 4 µg/mL (≈ 9.92 µM)

**Q.** `NC[C@@H]1c2nn(C(=O)NCC(N)=O)cc2[C@H]2CN1C(=O)N2OS(=O)(=O)O` (relative stereo) [Ex7, trans 8-(aminomethyl)-2-(carbamoylmethyl-carbamoyl)-4,8-dihydro-5-(sulphooxy)-4,7-methano-7H-pyrazolo[3,4-e][1,3]diazepin-6(5H)-one] was tested. Which MIC did it give?
**A.** 1 µg/mL (≈ 2.57 µM)

**Q.** `N=C(N)n1ncc2c1[C@@H](CN)N1C[C@H]2N(OS(=O)(=O)O)C1=O` (relative stereo) [Ex9] was tested. Which “MIC (μg/mL) 24 h (P, aerug, 1771)” value did it give?
**A.** 0.5 µg/mL (≈ 1.51 µM)

**Q.** With `N=C(N)n1cc2c(n1)[C@@H](CN)N1C[C@H]2N(OS(=O)(=O)O)C1=O` (relative stereo) [Ex10, trans 8-(aminomethyl)-2-(carbamimidoyl)-4,8-dihydro-5-(sulphooxy)-4,7-methano-7H-pyrazolo[3,4-e] [1,3]diazepin-6(5H)-one] as the molecule, how does the MIC read?
**A.** 0.5 µg/mL (≈ 1.51 µM)

**Q.** With `NC[C@@H]1c2nn(C(=O)C3CCNCC3)cc2[C@H]2CN1C(=O)N2OS(=O)(=O)O` (relative stereo) [Ex11, trans-8-(amino-methyl)-4,8-dihydro-2-(piperidine-4-carbonyl)-5-(sulphooxy)-4,7-methano-7H-pyrazolo[3,4-e][1,3]diazepin-6(5H)-one] as the molecule, how does the MIC read?
**A.** 0.25 µg/mL (≈ 0.624 µM)

**Q.** Which MIC does the source give for `NC[C@@H]1c2nn(CCC(N)C(=O)O)cc2[C@H]2CN1C(=O)N2OS(=O)(=O)O` (relative stereo) [Ex12, trans 8-(amino-methyl)-2-(3-amino-3-carboxy-propyl)-4,8-dihydro-5-(sulphooxy)-4,7-methano-7H-pyrazolo[3,4-e][1,3] diazepin-6(5H)-one] here?
**A.** 0.5 µg/mL (≈ 1.28 µM)

**Q.** With `N=C(N)NC[C@@H]1c2[nH]ncc2[C@H]2CN1C(=O)N2OS(=O)(=O)O` (relative stereo) [Ex13, trans 8-(guanidino-methyl)-4,8-dihydro-5-(sulphooxy)-4,7-methano-7H-pyrazolo[3,4-e][1,3]diazepin-6(5H)-one] as the molecule, how does the MIC read?
**A.** 1 µg/mL (≈ 3.02 µM)

**Q.** For `CCNC(=O)n1ncc2c1[C@@H](CNC(=N)N)N1C[C@H]2N(OS(=O)(=O)O)C1=O` (relative stereo) [Ex15, trans 8-(guanidino-methyl)-1-ethylcarbamoyl-4,8-dihydro-5-(sulphooxy)-4,7-methano-7H-pyrazolo[3,4-e][1,3]diazepin-6(5H)-one], which MIC is on record?
**A.** > 32 µg/mL

**Q.** With `CCNC(=O)n1cc2c(n1)[C@@H](CNC(=N)N)N1C[C@H]2N(OS(=O)(=O)O)C1=O` (relative stereo) [Ex16, trans 8-(guanidino-methyl)-2-ethylcarbamoyl-4,8-dihydro-5-(sulphooxy)-4,7-methano-7H-pyrazolo[3,4-e][1,3] diazepin-6(5H)-one] as the molecule, how does the MIC read?
**A.** 16 µg/mL (≈ 39.8 µM)

**Q.** `N=C(N)NC[C@@H]1c2nn(C(N)=O)cc2[C@H]2CN1C(=O)N2OS(=O)(=O)O` (relative stereo) [Ex17, trans 8-(guanidino-methyl)-2-carbamoyl-4,8-dihydro-5-(sulphooxy)-4,7-methano-7H-pyrazolo[3,4-e][1,3]diazepin-6(5H)-one] was tested. Which MIC did it give?
**A.** 1 µg/mL (≈ 2.67 µM)

**Q.** With `Cn1ncc2c1[C@@H](CN)N1C[C@H]2N(OC(F)(F)C(=O)O)C1=O` (relative stereo) [Ex18, trans 8-(amino-methyl)-4,8-dihydro-1-methyl-6-oxo-5-(carboxy-difluoro-methoxy)-4,7-methano-7H-pyrazolo[3,4-e][1,3] diazepin-6(5H)-one] as the molecule, how does the “MIC (μg/mL) 24 h (P, aerug, 1771)” value read?
**A.** 0.5 µg/mL (≈ 1.58 µM)

**Q.** “trans 8-(aminomethyl)-2-amino-carbamoyl-4,8-dihydro-5-(sulphooxy)-4,7-methano-7H-pyrazolo[3,4-e][1,3]diazepin-6(5H)-one [Ex19]” was tested. Which “MIC (μg/mL) 24 h (P, aerug, 1771)” value did it give?
**A.** 0.5 µg/mL
